Biological target: Cannabinoid receptor 1 (Rattus norvegicus, UniProt P20272)
Assay: Displacement of [3H][…] from CB1 receptor in Rattus norvegicus (rat) cerebellum homogenate after 2 hr by scintillation counting
Assay type: tissue-based
Conditions: not given

Sequence of Cannabinoid receptor 1 (P20272 whole entry): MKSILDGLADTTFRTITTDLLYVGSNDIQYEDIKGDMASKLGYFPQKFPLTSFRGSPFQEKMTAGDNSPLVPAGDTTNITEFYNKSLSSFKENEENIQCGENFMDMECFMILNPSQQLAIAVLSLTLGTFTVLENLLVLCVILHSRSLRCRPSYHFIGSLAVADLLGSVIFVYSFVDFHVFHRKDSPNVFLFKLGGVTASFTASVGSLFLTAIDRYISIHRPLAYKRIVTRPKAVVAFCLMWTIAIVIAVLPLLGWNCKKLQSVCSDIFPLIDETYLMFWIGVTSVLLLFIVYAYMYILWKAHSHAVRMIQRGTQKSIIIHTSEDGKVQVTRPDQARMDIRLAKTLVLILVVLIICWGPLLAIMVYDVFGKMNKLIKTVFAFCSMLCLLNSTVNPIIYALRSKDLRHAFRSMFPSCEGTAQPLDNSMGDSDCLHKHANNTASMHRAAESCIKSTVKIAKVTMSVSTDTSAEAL

CCCCCCn1nnc(-c2ccc(Cl)cc2Cl)c1-c1ccc(Cl)cc1 was tested, and the Ki was “ND(Insoluble)”.
C=CCn1nnc(-c2ccc(Cl)cc2Cl)c1-c1ccc(Cl)cc1 was tested, and the Ki was “ND(Insoluble)”.
In the case of CCC/C=C\Cn1nnc(-c2ccc(Cl)cc2Cl)c1-c1ccc(Cl)cc1, the Ki is reported as “ND(Insoluble)”.

Same assay, conditions: read-out: Ki

OCCn1nnc(-c2ccc(Cl)cc2Cl)c1-c1ccc(Cl)cc1 and CCCn1nnc(-c2ccc(Cl)cc2Cl)c1-c1ccc(Cl)cc1 are within 1.5-fold of each other in Ki: 163 nM for the first, 152 nM for the second.

Compared with COC(=O)Cn1nc(-c2ccc(Cl)cc2)c(-c2ccc(Cl)cc2Cl)n1, COC(=O)CCn1nc(-c2ccc(Cl)cc2)c(-c2ccc(Cl)cc2Cl)n1 is 2.8-fold higher in Ki: 855 nM for the first, 2360 nM for the second. The first binds more tightly here.

ClCCn1nc(-c2ccc(Cl)cc2)c(-c2ccc(Cl)cc2Cl)n1 and FCCn1nc(-c2ccc(Cl)cc2)c(-c2ccc(Cl)cc2Cl)n1 are within 1.5-fold of each other in Ki: 80 nM for the first, 79 nM for the second.

Going from N#CCn1nc(-c2ccc(Cl)cc2)c(-c2ccc(Cl)cc2Cl)n1 to OCCn1nc(-c2ccc(Cl)cc2)c(-c2ccc(Cl)cc2Cl)n1, the Ki rises from 232 nM to 660 nM (2.8-fold). The first binds more tightly here.

Compared with COC(=O)Cn1nnc(-c2ccc(Cl)cc2Cl)c1-c1ccc(Cl)cc1, FCCn1nnc(-c2ccc(Cl)cc2Cl)c1-c1ccc(Cl)cc1 is 1.7-fold higher in Ki: 247 nM for the first, 421 nM for the second.

Clc1ccc(-c2nn(Cc3ccccc3)nc2-c2ccc(Cl)cc2Cl)cc1 and Clc1ccc(-c2c(-c3ccc(Cl)cc3Cl)nnn2Cc2ccccc2)cc1 are within 1.5-fold of each other in Ki: 230 nM for the first, 187 nM for the second.

Biological target: Cannabinoid receptor 1 (Rattus norvegicus) (UniProt P20272)
Assay: Displacement of [3H][…] from CB1 receptor in Rattus norvegicus (rat) cerebellum homogenate at 1 uM after 2 hr by scintillation counting
Assay type: tissue-based
Conditions: not given

Sequence of Cannabinoid receptor 1 (Rattus norvegicus) (P20272 whole entry): as above

First: CCOC(=O)CCn1nc(-c2ccc(Cl)cc2)c(-c2ccc(Cl)cc2Cl)n1
Second: N#CCCn1nc(-c2ccc(Cl)cc2)c(-c2ccc(Cl)cc2Cl)n1
The inhibition of the first is lower: 22% for the first, 26% for the second.

Biological target: Cannabinoid receptor 1 (Rattus norvegicus) (UniProt P20272)
Assay: Displacement of [3H][…] from CB1 receptor in Rattus norvegicus (rat) cerebellum homogenate at 100 uM after 2 hr by scintillation counting
Assay type: tissue-based
Conditions: not given

With CCCCOC(=O)n1nc(-c2ccc(Cl)cc2)c(-c2ccc(Cl)cc2Cl)n1 the inhibition was 30%.

— ChEMBL document CHEMBL3046646, “Regioselective synthesis and cannabinoid receptor binding affinity of N-alkylated 4,5-diaryl-1,2,3-triazoles” (Med Chem Res, 2012)
